The record followed here is publication PMC5708646, “Single-molecule study of full-length NaChBac by planar lipid bilayer recording” (PLoS ONE, 2017).

The structures appear in SMILES notation.

The assay deals with T1, NaChBac (Halalkalibacterium halodurans, UniProt Q9KCR8).
T1 construct: gene BH1501
T1 sequence (Q9KCR8 1-274): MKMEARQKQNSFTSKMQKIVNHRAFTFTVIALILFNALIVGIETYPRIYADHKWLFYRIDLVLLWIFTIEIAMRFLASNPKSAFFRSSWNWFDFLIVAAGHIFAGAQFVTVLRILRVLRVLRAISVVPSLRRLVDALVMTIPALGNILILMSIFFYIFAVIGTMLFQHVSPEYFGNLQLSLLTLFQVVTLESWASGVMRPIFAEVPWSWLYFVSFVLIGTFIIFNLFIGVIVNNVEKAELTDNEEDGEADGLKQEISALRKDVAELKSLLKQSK
As to the kind of experiment: planar lipid bilayer current recording, reconstituted purified channel. The assay is classed as biochemical. The note with it: block from the intracellular side, reversible on washout; concentration not printed for this test; step from -120 to +60 mV; POPE/POPG bilayer; pH 7.4.

On to `CC[N+](CC)(CC)CC(=O)Nc1c(C)cccc1C` [lidocaine N-ethyl bromide], for which the “planar lipid bilayer current recording, reconstituted purified channel” value is “It was observed that the current completely dimished (red trace of Fig 3C)”.
